Source: patent publication US6962912B2, “Substituted pyrazolo[4,3-e]diazepines, pharmaceutical compositions containing them, use as medicinal products and processes for preparing them” (Warner-Lambert LLC, priority 2000, dated 2005)

What was measured:
[1] = biological target: PDE4; experiment: Inhibition of PDE4 (cytosolic enzyme preparation from U937 line), compared with rolipram; format: biochemical, human; details: PDE4 enzyme preparation obtained from the U937 line

Compound	IC50 [1] [nM]	melting point [°C]
CCCn1nc(C(C)CC)c2c1C(=O)NCC(c1ccccc1)=N2 (racemic) [Example 70, (±)3-sec-Butyl-5-phenyl-1-propyl-6,7-dihydro-1H-pyrazolo-[4,3-e][1,4]diazepin-8-one]	11	
CCC(C)c1nn(CC)c2c1N=C(c1ccc(OC)cc1)CNC2=O (racemic) [Example 89, (±)3-sec-Butyl-1-ethyl-5-(4-methoxyphenyl)-6,7-dihydro-1H-pyrazolo[4,3-e][1,4]diazepin-8-one]	33	50
CCOC(=O)c1nn(CC)c2c1N=C(c1ccccc1)CNC2=O [Example 5, Ethyl 1-ethyl-8-oxo-5-phenyl-1,6,7,8-tetrahydropyrazolo-[4,3-e][1,4]diazepin-3-carboxylate]	390	
CCn1nc(C)c2c1C(=O)NCC(c1ccc(Br)cc1)=N2 [Example 7, 5-(4-Bromophenyl)-1-ethyl-3-methyl-6,7-dihydro-1H-pyrazolo[4,3-e][1,4]diazepin-8-one]	130	223
CCn1nc(C)c2c1C(=O)NCC(c1sccc1Cl)=N2 [Example 9, 5-(3-Chlorothien-2-yl)-1-ethyl-3-methyl-6,7-dihydro-1H-pyrazolo[4,3-e][1,4]diazepin-8-one]	150	213
CCn1nc(C)c2c1C(=O)NCC(CCC(=O)OC)=N2 [Example 10, Methyl 3-(1-ethyl-3-methyl-8-oxo-1,6,7,8-tetrahydro-pyrazolo[4,3-e][1,4]diazepin-5-yl)propanoate]	1290	
CCn1nc(C)c2c1C(=O)NCC(c1ccc(F)cc1)=N2 [Example 13, 1-Ethyl-5-(4-fluorophenyl)-3-methyl-6,7-dihydro-1H-pyrazolo[4,3-e][1,4]diazepin-8-one]	130	174
CCn1nc(C)c2c1C(=O)NCC(c1cccc(Br)c1)=N2 [Example 14, 5-(3-Bromophenyl)-1-ethyl-3-methyl-6,7-dihydro-1H-pyrazolo-[4,3-e][1,4]diazepin-8-one]	81	173
CCn1nc(C)c2c1C(=O)NCC(c1cccc(OC)c1)=N2 [Example 18, 1-Ethyl-5-(3-methoxyphenyl)-3-methyl-6,7-dihydro-1H-pyrazolo[4,3-e][1,4]diazepin-8-one]	100	120
CCn1nc(C)c2c1C(=O)NCC(c1ccccc1N)=N2 [Example 19, 5-(2-Aminophenyl)-1-ethyl-3-methyl-6,7-dihydro-1H-pyrazolo[4,3-e][1,4]diazepin-8-one]	87	156
CCn1nc(C)c2c1C(=O)NCC(c1ccccc1OC)=N2 [Example 20, 1-Ethyl-5-(2-methoxyphenyl)-3-methyl-6,7-dihydro-1H-pyrazolo[4,3-e][1,4]diazepin-8-one]	99	214
CCCn1nc(C)c2c1C(=O)NCC(c1ccc(N)cc1)=N2 [Example 29, 5-(4-Aminophenyl)-3-methyl-1-propyl-6,7-dihydro-1H-pyrazolo[4,3-e][1,4]diazepin-8-one]	330	225
CCn1nc(C(C)C)c2c1C(=O)NCC(c1ccc(N3CCCC3)cc1)=N2 [Example 38, 1-Ethyl-3-isopropyl-5-(4-pyrrolidin-1-yl-phenyl)-6,7-dihydro-1H-pyrazolo[4,3-e][1,4]diazepin-8-one]	650	
CCCn1nc(C(C)C)c2c1C(=O)NCC(c1ccc(OC)cc1OC)=N2 [Example 43, 5-(2,4-Dimethoxyphenyl)-3-isopropyl-1-propyl-6,7-dihydro-1H-pyrazolo[4,3-e][1,4]diazepin-8-one]	48	
CCn1nc(C(C)(C)C)c2c1C(=O)NCC(C(C)(C)C)=N2 [Example 44, 3,5-Di-tert-butyl-1-ethyl-6,7-dihydro-1H-pyrazolo[4,3-e][1,4]diazepin-8-one]	1.1	
CCCn1nc(C(C)(C)C)c2c1C(=O)NCC(c1ccc(C#N)cc1)=N2 [Example 50, 4-(3-tert-Butyl-8-oxo-1-propyl-1,6,7,8-tetrahydro-1H-pyrazolo[4,3-e][1,4]diazepin-5-yl)benzonitrile]	16	
CCn1nc(C)c2c1C(=O)NCC(c1ccc(N(S(=O)(=O)c3ccccc3)S(=O)(=O)c3ccccc3)cc1)=N2 [Example 56, N-[4-(1-Ethyl-3-methyl-8-oxo-1,6,7,8-tetrahydro-pyrazolo[4,3-e][1,4]diazepin-5-yl)phenyl]-(phenylsulphonyl)benzenesulphonamide]	500	
CCn1nc(C)c2c1C(=O)NCC(c1ccc(C(F)(F)F)cc1)=N2 [Example 62, 1-Ethyl-3-methyl-5-(4-trifluoromethylphenyl)-6,7-dihydro-1H-pyrazolo[4,3-e][1,4]diazepin-8-one]	260	
CCCn1nc(C2CCCCC2)c2c1C(=O)NCC(c1ccccc1)=N2 [Example 74, 3-Cyclohexyl-5-phenyl-1-propyl-6,7-dihydro-1H-pyrazolo-[4,3-e][1,4]diazepin-8-one]	5.4	
CCCn1nc(CC2CCCCC2)c2c1C(=O)NCC(c1ccccc1)=N2 [Example 77, 3-Cyclohexylmethyl-5-phenyl-1-propyl-6,7-dihydro-1H-pyrazolo[4,3-e][1,4]diazepin-8-one]	210	
CCCn1nc(CC2CCCCC2)c2c1C(=O)NCC(c1ccncc1)=N2 [Example 78, 3-Cyclohexylmethyl-1-propyl-5-pyrid-4-yl-6,7-dihydro-1H-pyrazolo[4,3-e][1,4]diazepin-8-one]	21	
CCn1nc(C)c2c1C(=[SH]c1ccc(OC)cc1)NCC=N2 [Example 83, 1-Ethyl-S-(4-methoxyphenyl)-3-methyl-6,7-dihydro-1H-pyrazolo[4,3-e][1,4]diazepin-8-thione]		209

Further lines, results first:

IC50 [1] [nM]	melting point [°C]	Compound
193	85	CCCn1nc(C(C)CC)c2c1C(=O)NCC(c1ccc(OC)cc1)=N2 (racemic) [Example 90, (±)3-sec-Butyl-5-(4-methoxyphenyl)-1-propyl-6,7-dihydro-1H-pyrazolo[4,3-e][1,4]diazepin-8-one]
8.4		CCn1nc(-c2ccccc2)c2c1C(=O)NCC(c1ccccc1)=N2 [Example 4, 1-Ethyl-3,5-diphenyl-6,7-dihydro-1H-pyrazolo[4,3-e][1,4]diazepin-8-one]
210	193	CCn1nc(C)c2c1C(=O)NCC(c1ccc3ccccc3c1)=N2 [Example 8, 1-Ethyl-3-methyl-5-naphth-2-yl-6,7-dihydro-1H-pyrazolo[4,3-e][1,4]diazepin-8-one]
120	215	CCn1nc(C)c2c1C(=O)NCC(c1ccc(Cl)cc1)=N2 [Example 11, 5-(4-Chlorophenyl)-1-ethyl-3-methyl-6,7-dihydro-1H-pyrazolo[4,3-e][1,4]diazepin-8-one]
28	156	CCCn1nc(C)c2c1C(=S)NCC(c1ccccc1)=N2 [Example 22, 3-Methyl-5-phenyl-1-propyl-6,7-dihydro-1H-pyrazolo[4,3-e][1,4]diazepin-8-thione]
3.8	191	CCn1nc(C(C)C)c2c1C(=O)NCC(c1ccc(N)cc1)=N2 [Example 27, 5-(4-Aminophenyl)-1-ethyl-3-isopropyl-6,7-dihydro-1H-pyrazolo[4,3-e][1,4]diazepin-8-one]
300		Cc1nn(CC(F)(F)F)c2c1N=C(c1ccccc1)CNC2=O [Example 30, 3-Methyl-5-phenyl-1-(2.2.2-trifluoroethyl)-6,7-dihydro-1H-pyrazolo[4,3-e][1,4]diazepin-8-one]
21		CCn1nc(C(C)(C)C)c2c1C(=O)NCC(c1ccc(OC)cc1OC)=N2 [Example 47, 3-tert-Butyl-5-(2,4-dimethoxyphenyl)-1-ethyl-6,7-dihydro-1H-pyrazolo[4,3-e][1,4]diazepin-8-one]
8.1		CCCn1nc(C(C)(C)C)c2c1C(=O)NCC(C(C)(C)C)=N2 [Example 48, 3,5-Di-tert-butyl-1-propyl-6,7-dihydro-1H-pyrazolo[4,3-e][1,4]diazepin-8-one]
32		CCCn1nc(C(C)(C)C)c2c1C(=O)NCC(c1ccc(C)cc1)=N2 [Example 49, 3-tert-Butyl-1-propyl-5-p-tolyl-6,7-dihydro-1H-pyrazolo[4,3-e][1,4]diazepin-8-one]
60		CCCn1nc(C(C)(C)C)c2c1C(=O)NCC(c1ccc(OC)cc1OC)=N2 [Example 51, 3-tert-Butyl-5-(2,4-dimethoxyphenyl)-1-propyl-6,7-dihydro-1H-pyrazolo[4,3-e][1,4]diazepin-8-one]
140		Cc1nn(CC2CC2)c2c1N=C(c1ccccc1)CNC2=O [Example 58, 1-Cyclopropylmethyl-3-methyl-5-phenyl-6,7-dihydro-1H-pyrazolo[4,3-e][1,4]diazepin-8-one]
510		C=CCn1nc(C)c2c1C(=O)NCC(c1ccccc1)=N2 [Example 59, 1-Allyl-3-methyl-5-phenyl-6,7-dihydro-1H-pyrazolo[4,3-e][1,4]diazepin-8-one]
7.9		CCn1nc(C(C)C)c2c1C(=O)NCC(c1ccc(C(F)(F)F)cc1)=N2 [Example 61, 1-Ethyl-3-isopropyl-5-(4-trifluoromethylphenyl)-6,7-dihydro-1H-pyrazolo[4,3-e][1,4]diazepin-8-one]
1.8		CCn1nc(C2CCCCC2)c2c1C(=O)NCC(c1ccccc1)=N2 [Example 72, 3-Cyclohexyl-1-ethyl-5-phenyl-6,7-dihydro-1H-pyrazolo-[4,3-e][1,4]diazepin-8-one]
8.2		CCn1nc(CC2CCCCC2)c2c1C(=O)NCC(c1ccncc1)=N2 [Example 76, 3-Cyclohexylmethyl-1-ethyl-5-pyrid-4-yl-6,7-dihydro-1H-pyrazolo[4,3-e][1,4]diazepin-8-one]
11		CCn1nc(CC2CCCCC2)c2c1C(=O)NCC(c1ccccc1)=N2 [Example 79, 3-Cyclohexylmethyl-1-ethyl-5-phenyl-6,7-dihydro-1H-pyrazolo[4,3-e][1,4]diazepin-8-one]
1580		CCOCc1nn(CC)c2c1N=C(c1ccccc1)CNC2=O [Example 97, 3-Ethoxymethyl-1-ethyl-5-phenyl-6,7-dihydro-1H-pyrazolo-[4,3-e][1,4]diazepin-8-one]
